PubChem BioAssay AID1259407 (Chemical Carcinogenesis Research Information System (CCRIS), 2018)
Active and inactive are the calls of the source. No rule for the calls is given here.

System: CCRIS mutagenicity, Ames/micronucleus/aberration tests
Test: CCRIS mutagenicity studies
[1] = Test System: AMES SALMONELLA TYPHIMURIUM, Strain/Indicator: TA98, Metabolic Activation: NONE, Method: STANDARD PLATE
[2] = Test System: AMES SALMONELLA TYPHIMURIUM, Strain/Indicator: TA98, Metabolic Activation: RAT, LIVER, S-9, AROCLOR 1254, Method: STANDARD PLATE
[3] = Test System: AMES SALMONELLA TYPHIMURIUM, Strain/Indicator: TA100, Metabolic Activation: RAT, LIVER, S-9, AROCLOR 1254, Method: STANDARD PLATE
[4] = Test System: AMES SALMONELLA TYPHIMURIUM, Strain/Indicator: TA1535, Metabolic Activation: NONE, Method: STANDARD PLATE
[5] = Test System: AMES SALMONELLA TYPHIMURIUM, Strain/Indicator: TA1535, Metabolic Activation: RAT, LIVER, S-9, AROCLOR 1254, Method: STANDARD PLATE
[6] = Test System: AMES SALMONELLA TYPHIMURIUM, Strain/Indicator: TA1538, Metabolic Activation: NONE, Method: STANDARD PLATE
[7] = Test System: AMES SALMONELLA TYPHIMURIUM, Strain/Indicator: TA1538, Metabolic Activation: RAT, LIVER, S-9, AROCLOR 1254, Method: STANDARD PLATE

O=Cc1c(Cl)cccc1Cl
mutagenic call (Test System: AMES SALMONELLA TYPHIMURIUM, Strain/Indicator: TA97, Metabolic Activation: HAMSTER, LIVER, S-9, AROCLOR 1254 (10%), Method: PREINCUBATION): inactive; negative
mutagenic call (Test System: AMES SALMONELLA TYPHIMURIUM, Strain/Indicator: TA97, Metabolic Activation: HAMSTER, LIVER, S-9, AROCLOR 1254 (30%), Method: PREINCUBATION): inactive; negative
mutagenic call (Test System: AMES SALMONELLA TYPHIMURIUM, Strain/Indicator: TA97, Metabolic Activation: NONE, Method: PREINCUBATION): inactive; negative
mutagenic call (Test System: AMES SALMONELLA TYPHIMURIUM, Strain/Indicator: TA97, Metabolic Activation: RAT, LIVER, S-9, AROCLOR 1254 (10%), Method: PREINCUBATION): inactive; negative
mutagenic call (Test System: AMES SALMONELLA TYPHIMURIUM, Strain/Indicator: TA97, Metabolic Activation: RAT, LIVER, S-9, AROCLOR 1254 (30%), Method: PREINCUBATION): inactive; negative
mutagenic call (Test System: AMES SALMONELLA TYPHIMURIUM, Strain/Indicator: TA98, Metabolic Activation: HAMSTER, LIVER, S-9, AROCLOR 1254 (10%), Method: PREINCUBATION): inactive; negative
mutagenic call (Test System: AMES SALMONELLA TYPHIMURIUM, Strain/Indicator: TA98, Metabolic Activation: HAMSTER, LIVER, S-9, AROCLOR 1254 (30%), Method: PREINCUBATION): inactive; negative
mutagenic call (Test System: AMES SALMONELLA TYPHIMURIUM, Strain/Indicator: TA98, Metabolic Activation: NONE, Method: PREINCUBATION): inactive; negative
mutagenic call (Test System: AMES SALMONELLA TYPHIMURIUM, Strain/Indicator: TA98, Metabolic Activation: RAT LIVER S-9 PCB, Method: PREINCUBATION): inactive; negative
mutagenic call (Test System: AMES SALMONELLA TYPHIMURIUM, Strain/Indicator: TA98, Metabolic Activation: RAT, LIVER, S-9, AROCLOR 1254 (10%), Method: PREINCUBATION): inactive; negative
mutagenic call (Test System: AMES SALMONELLA TYPHIMURIUM, Strain/Indicator: TA98, Metabolic Activation: RAT, LIVER, S-9, AROCLOR 1254 (30%), Method: PREINCUBATION): inactive; negative
mutagenic call (Test System: AMES SALMONELLA TYPHIMURIUM, Strain/Indicator: TA100, Metabolic Activation: HAMSTER, LIVER, S-9, AROCLOR 1254 (10%), Method: PREINCUBATION): inactive; negative
mutagenic call (Test System: AMES SALMONELLA TYPHIMURIUM, Strain/Indicator: TA100, Metabolic Activation: HAMSTER, LIVER, S-9, AROCLOR 1254 (30%), Method: PREINCUBATION): inactive; negative
mutagenic call (Test System: AMES SALMONELLA TYPHIMURIUM, Strain/Indicator: TA100, Metabolic Activation: NONE, Method: PREINCUBATION): inactive; negative
mutagenic call (Test System: AMES SALMONELLA TYPHIMURIUM, Strain/Indicator: TA100, Metabolic Activation: RAT LIVER S-9, PCB, Method: PREINCUBATION): inactive; negative
mutagenic call (Test System: AMES SALMONELLA TYPHIMURIUM, Strain/Indicator: TA100, Metabolic Activation: RAT, LIVER, S-9, AROCLOR 1254 (10%), Method: PREINCUBATION): inactive; negative
mutagenic call (Test System: AMES SALMONELLA TYPHIMURIUM, Strain/Indicator: TA100, Metabolic Activation: RAT, LIVER, S-9, AROCLOR 1254 (30%), Method: PREINCUBATION): inactive; negative
mutagenic call (Test System: AMES SALMONELLA TYPHIMURIUM, Strain/Indicator: TA104, Metabolic Activation: HAMSTER, LIVER, S-9, AROCLOR 1254 (10%), Method: PREINCUBATION): inactive; negative
mutagenic call (Test System: AMES SALMONELLA TYPHIMURIUM, Strain/Indicator: TA104, Metabolic Activation: HAMSTER, LIVER, S-9, AROCLOR 1254 (30%), Method: PREINCUBATION): inactive; negative
mutagenic call (Test System: AMES SALMONELLA TYPHIMURIUM, Strain/Indicator: TA104, Metabolic Activation: NONE, Method: PREINCUBATION): inactive; negative
mutagenic call (Test System: AMES SALMONELLA TYPHIMURIUM, Strain/Indicator: TA104, Metabolic Activation: RAT LIVER S-9, PCB, Method: PREINCUBATION): inactive; negative
mutagenic call (Test System: AMES SALMONELLA TYPHIMURIUM, Strain/Indicator: TA104, Metabolic Activation: RAT, LIVER, S-9, AROCLOR 1254 (10%), Method: PREINCUBATION): inactive; negative
mutagenic call (Test System: AMES SALMONELLA TYPHIMURIUM, Strain/Indicator: TA104, Metabolic Activation: RAT, LIVER, S-9, AROCLOR 1254 (30%), Method: PREINCUBATION): inactive; negative
mutagenic call (Test System: AMES SALMONELLA TYPHIMURIUM, Strain/Indicator: TA1535, Metabolic Activation: HAMSTER, LIVER, S-9, AROCLOR 1254 (10%), Method: PREINCUBATION): inactive; negative
mutagenic call (Test System: AMES SALMONELLA TYPHIMURIUM, Strain/Indicator: TA1535, Metabolic Activation: HAMSTER, LIVER, S-9, AROCLOR 1254 (30%), Method: PREINCUBATION): inactive; negative
mutagenic call (Test System: AMES SALMONELLA TYPHIMURIUM, Strain/Indicator: TA1535, Metabolic Activation: NONE, Method: PREINCUBATION): inactive; negative
mutagenic call (Test System: AMES SALMONELLA TYPHIMURIUM, Strain/Indicator: TA1535, Metabolic Activation: RAT, LIVER, S-9, AROCLOR 1254 (10%), Method: PREINCUBATION): inactive; negative
mutagenic call (Test System: AMES SALMONELLA TYPHIMURIUM, Strain/Indicator: TA1535, Metabolic Activation: RAT, LIVER, S-9, AROCLOR 1254 (30%), Method: PREINCUBATION): inactive; negative
mutagenic call (Test System: E.COLI, Strain/Indicator: WP2 UVRA, Metabolic Activation: NONE, Method: PREINCUBATION): inactive; negative
mutagenic call (Test System: E.COLI, Strain/Indicator: WP2 UVRA, Metabolic Activation: RAT LIVER S-9, PCB, Method: PREINCUBATION): inactive; negative

CCCCCC(O)CC(=O)CCC1CCC(O)C(OC)C1 (configuration not stated)
mutagenic call [1]: inactive; negative
mutagenic call [2]: inactive; negative
mutagenic call (Test System: AMES SALMONELLA TYPHIMURIUM, Strain/Indicator: TA100, Metabolic Activation: NONE, Method: STANDARD PLATE): inactive; negative
mutagenic call [3]: active; positive
mutagenic call [4]: inactive; negative
mutagenic call [5]: active; positive
mutagenic call [6]: inactive; negative
mutagenic call [7]: inactive; negative

O=C1c2cc(S(=O)(=O)O)ccc2C(=O)c2c1cccc2[N+](=O)[O-]
mutagenic call [1]: active; positive
mutagenic call [2]: active; positive
mutagenic call [3]: inactive; negative
mutagenic call [4]: inactive; negative
mutagenic call [5]: inactive; negative
mutagenic call (Test System: AMES SALMONELLA TYPHIMURIUM, Strain/Indicator: TA1537, Metabolic Activation: NONE, Method: STANDARD PLATE): active; positive
mutagenic call (Test System: AMES SALMONELLA TYPHIMURIUM, Strain/Indicator: TA1537, Metabolic Activation: RAT, LIVER, S-9, AROCLOR 1254, Method: STANDARD PLATE): active; positive
mutagenic call [6]: active; positive
mutagenic call [7]: active; positive
